The target of test [1] is T1, Cytochrome P450 1A2 (Homo sapiens, UniProt P05177).
T1 sequence (P05177 whole entry): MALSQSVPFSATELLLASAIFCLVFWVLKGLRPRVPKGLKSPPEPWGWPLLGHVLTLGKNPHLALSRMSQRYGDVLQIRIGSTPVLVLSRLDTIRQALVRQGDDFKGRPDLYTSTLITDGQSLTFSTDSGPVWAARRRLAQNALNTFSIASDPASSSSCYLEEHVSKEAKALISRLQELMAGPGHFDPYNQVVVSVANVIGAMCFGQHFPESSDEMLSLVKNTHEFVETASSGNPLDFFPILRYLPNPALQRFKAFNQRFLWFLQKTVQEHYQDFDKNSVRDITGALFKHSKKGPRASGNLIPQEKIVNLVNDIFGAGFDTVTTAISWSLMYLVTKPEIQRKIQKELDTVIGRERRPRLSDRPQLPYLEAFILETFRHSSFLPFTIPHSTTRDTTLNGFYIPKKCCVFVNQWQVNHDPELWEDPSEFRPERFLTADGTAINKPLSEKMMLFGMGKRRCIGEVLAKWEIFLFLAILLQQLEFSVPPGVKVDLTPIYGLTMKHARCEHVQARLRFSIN
Briefly: CYP Activity Assay. The following applies: 37 °C. On the procedure: (§1) Inhibition of hepatic cytochromes P450 was assessed in human liver microsomes using a substrate-specific approach of monitoring metabolites formed by each specific CYP enzyme. Metabolic reactions included phenacetin-O-deethylation (1A2), tolbutamide methylhydroxylation (2C9), S-mephenytoin 4'-hydroxylation (2C19), dextrome-thorphan-[…] (2D6), and testosterone-6-β-hydroxylation (3A4). Each substrate was added at a concentration less than or equal to the Km for themetabolic pathway, and microsomal protein concentrations and assay incubation times were optimized for each reaction to ensure linear metabolite formation based on initial rates (Table 1). Microsomes were suspended in phosphate buffer and incubated at 37 °C in the presence of probe substrates. Reactions were initiated by the addition of an NADPH-regenerating buffer system and were quenched at the appropriate times using acetonitrile. Samples were centrifuged and concentrations of metabolites assessed by LC/MS.

For test [2], the target named is Cytochrome P450 2C19 (Homo sapiens, UniProt P33261). Description: CYP Activity Assay. The settings on record: 37 °C. On the procedure: as §1
Chain of Cytochrome P450 2C19 (P33261 whole entry): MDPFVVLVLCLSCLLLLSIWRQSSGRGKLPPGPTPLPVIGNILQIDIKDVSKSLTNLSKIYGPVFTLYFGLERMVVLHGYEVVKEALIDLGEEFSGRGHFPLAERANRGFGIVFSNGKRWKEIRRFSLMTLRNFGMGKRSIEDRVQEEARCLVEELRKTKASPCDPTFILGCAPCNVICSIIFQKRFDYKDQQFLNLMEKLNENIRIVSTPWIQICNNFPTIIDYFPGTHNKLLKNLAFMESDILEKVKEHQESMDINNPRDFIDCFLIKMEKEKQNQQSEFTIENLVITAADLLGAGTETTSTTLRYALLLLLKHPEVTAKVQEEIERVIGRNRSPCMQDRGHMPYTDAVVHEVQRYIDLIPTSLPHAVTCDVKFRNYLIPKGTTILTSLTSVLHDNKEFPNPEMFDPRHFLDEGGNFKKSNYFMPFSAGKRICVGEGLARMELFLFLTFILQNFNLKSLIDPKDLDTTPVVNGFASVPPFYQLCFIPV
Test [3] concerns the target Cytochrome P450 2C9 (Homo sapiens, UniProt P11712). Briefly: CYP Activity Assay. The settings on record: 37 °C. On the procedure:
as §1

Test [4] addresses Cytochrome P450 2D6 (Homo sapiens, UniProt P10635). Briefly: CYP Activity Assay. The settings on record: 37 °C. On the procedure: as §1
The target in test [5] is Cytochrome P450 3A4 (Homo sapiens, UniProt P08684). Description: CYP Activity Assay. The settings on record: 37 °C. How it is done: as §1
Chain of Cytochrome P450 3A4 (P08684 whole entry): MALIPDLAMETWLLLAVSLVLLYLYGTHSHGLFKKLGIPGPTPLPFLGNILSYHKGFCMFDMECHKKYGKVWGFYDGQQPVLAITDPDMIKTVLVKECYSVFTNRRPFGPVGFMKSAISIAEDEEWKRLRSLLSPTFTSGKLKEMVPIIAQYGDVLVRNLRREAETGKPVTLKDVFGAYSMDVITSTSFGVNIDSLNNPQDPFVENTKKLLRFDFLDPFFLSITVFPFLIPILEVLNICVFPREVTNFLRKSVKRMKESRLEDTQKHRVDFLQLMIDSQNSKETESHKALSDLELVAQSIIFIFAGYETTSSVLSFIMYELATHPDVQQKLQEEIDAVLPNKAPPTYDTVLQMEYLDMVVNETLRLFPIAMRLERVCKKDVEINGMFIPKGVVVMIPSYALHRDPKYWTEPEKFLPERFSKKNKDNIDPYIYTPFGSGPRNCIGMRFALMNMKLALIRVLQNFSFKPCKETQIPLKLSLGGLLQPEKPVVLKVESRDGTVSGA
Test [6] has as its target T2, Lanosterol 14-alpha demethylase (Homo sapiens, UniProt Q16850).
T2 sequence (Q16850 whole entry): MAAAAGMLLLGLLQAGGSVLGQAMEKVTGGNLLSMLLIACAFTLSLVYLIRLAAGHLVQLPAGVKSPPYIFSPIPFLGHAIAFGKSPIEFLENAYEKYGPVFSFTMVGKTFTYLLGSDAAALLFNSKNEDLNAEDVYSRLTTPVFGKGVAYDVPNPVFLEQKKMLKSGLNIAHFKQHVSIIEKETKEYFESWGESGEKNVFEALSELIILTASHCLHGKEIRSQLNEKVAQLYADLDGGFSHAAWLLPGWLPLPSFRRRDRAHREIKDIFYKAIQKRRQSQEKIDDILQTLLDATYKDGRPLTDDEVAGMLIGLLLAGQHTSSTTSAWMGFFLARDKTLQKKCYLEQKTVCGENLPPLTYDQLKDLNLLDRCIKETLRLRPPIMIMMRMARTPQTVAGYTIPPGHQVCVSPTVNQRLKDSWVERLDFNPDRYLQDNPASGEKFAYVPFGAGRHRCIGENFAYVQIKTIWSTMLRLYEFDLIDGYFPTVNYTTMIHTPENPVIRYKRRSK
Briefly: CYP51 Inhibition Assay. The settings on record: pH 7.4; 37 °C. How it is done:
(§2) Briefly, the reaction mixture contained 1 uM CYP51, 2 uM cytochrome P450 reductase, 100 uM dilauroyl-alpha-phosphatidylcholine, 0.4 mg/ml isoctrate dehydrogenase, and 25mM sodium isocitrate in 20mM MOPS (pH 7.4), 50 mM KCl, 5 mM MgCl2, and 10% glycerol. After the addition of the 3H-radiolabeled sterol substrate (~2000 cpm/nmol, final concentration 50 uM) the mixture was preincubated for 5 min at 37 °C in a shaking water bath (GCA Precision Scientific). The reaction was initiated by the addition of 100 uM NADPH and stopped by extraction of the sterols with ethyl acetate. The reaction products were dried, dissolved in methanol, and analyzed by a reverse-phase HPLC system (Waters) equipped with a beta-RAM detector (INUS Systems, Inc.) using a Nova-Pak C18 column (particle size 4 uM, 3.9 x 150 mm) and a linear gradient consisting of water:acetonitrile:methanol (1.0:4.5:4.5) (solvent A) and methanol (solvent B) at a flow rate of 1 ml/min.

Test [7] has as its target Putative lanosterol 14-alpha-demethylase (Leishmania infantum, UniProt A2TEF2). Briefly: CYP51 Inhibition Assay. The following applies: pH 7.4; 37 °C. On the procedure:
as §2

In test [8] the target is Sterol 14-alpha demethylase (Trypanosoma cruzi (strain CL Brener), UniProt Q7Z1V1). Description: CYP51 Inhibition Assay. The following applies: pH 7.4; 37 °C. How it is done: as §2
Chain of Sterol 14-alpha demethylase (Q7Z1V1 whole entry): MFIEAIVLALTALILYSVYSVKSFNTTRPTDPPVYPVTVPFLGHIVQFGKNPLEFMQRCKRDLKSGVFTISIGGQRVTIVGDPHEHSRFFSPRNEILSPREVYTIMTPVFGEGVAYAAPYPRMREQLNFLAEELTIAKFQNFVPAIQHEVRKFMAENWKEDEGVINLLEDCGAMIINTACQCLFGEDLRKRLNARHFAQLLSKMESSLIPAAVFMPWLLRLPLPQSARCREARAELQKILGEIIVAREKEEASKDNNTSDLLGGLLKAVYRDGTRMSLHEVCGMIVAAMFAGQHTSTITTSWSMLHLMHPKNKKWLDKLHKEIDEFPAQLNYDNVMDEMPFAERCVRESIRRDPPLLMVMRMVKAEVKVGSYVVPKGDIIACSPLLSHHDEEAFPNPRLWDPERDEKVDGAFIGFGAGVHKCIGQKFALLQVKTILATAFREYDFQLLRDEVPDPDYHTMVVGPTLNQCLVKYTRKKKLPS

Chain of Putative lanosterol 14-alpha-demethylase (A2TEF2 whole entry): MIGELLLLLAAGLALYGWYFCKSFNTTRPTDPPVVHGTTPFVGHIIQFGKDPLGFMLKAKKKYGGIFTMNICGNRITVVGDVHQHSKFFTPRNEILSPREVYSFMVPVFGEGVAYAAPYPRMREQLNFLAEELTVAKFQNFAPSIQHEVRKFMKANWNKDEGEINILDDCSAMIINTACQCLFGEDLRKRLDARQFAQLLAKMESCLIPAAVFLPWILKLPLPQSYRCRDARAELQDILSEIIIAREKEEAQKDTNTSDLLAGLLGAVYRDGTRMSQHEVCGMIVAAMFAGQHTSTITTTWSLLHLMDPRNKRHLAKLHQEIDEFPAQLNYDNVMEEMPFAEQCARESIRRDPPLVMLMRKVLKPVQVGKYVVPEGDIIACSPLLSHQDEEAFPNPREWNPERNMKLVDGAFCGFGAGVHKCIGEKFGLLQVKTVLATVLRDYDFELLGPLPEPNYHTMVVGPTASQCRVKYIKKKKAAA
Chain of Cytochrome P450 2D6 (P10635 whole entry): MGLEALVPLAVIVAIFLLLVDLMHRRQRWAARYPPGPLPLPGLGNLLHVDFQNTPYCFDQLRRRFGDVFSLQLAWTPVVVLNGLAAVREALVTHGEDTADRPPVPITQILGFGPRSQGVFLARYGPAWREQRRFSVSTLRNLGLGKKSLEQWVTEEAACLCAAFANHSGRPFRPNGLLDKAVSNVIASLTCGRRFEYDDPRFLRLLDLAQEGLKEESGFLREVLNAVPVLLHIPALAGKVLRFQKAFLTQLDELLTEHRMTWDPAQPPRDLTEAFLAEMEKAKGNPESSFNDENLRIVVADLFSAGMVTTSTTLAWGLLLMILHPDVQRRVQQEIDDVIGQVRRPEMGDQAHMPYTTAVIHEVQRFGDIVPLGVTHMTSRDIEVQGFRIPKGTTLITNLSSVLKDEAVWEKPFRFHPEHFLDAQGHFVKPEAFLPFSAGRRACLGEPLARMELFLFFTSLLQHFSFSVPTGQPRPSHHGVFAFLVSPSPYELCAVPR
Chain of Cytochrome P450 2C9 (P11712 whole entry): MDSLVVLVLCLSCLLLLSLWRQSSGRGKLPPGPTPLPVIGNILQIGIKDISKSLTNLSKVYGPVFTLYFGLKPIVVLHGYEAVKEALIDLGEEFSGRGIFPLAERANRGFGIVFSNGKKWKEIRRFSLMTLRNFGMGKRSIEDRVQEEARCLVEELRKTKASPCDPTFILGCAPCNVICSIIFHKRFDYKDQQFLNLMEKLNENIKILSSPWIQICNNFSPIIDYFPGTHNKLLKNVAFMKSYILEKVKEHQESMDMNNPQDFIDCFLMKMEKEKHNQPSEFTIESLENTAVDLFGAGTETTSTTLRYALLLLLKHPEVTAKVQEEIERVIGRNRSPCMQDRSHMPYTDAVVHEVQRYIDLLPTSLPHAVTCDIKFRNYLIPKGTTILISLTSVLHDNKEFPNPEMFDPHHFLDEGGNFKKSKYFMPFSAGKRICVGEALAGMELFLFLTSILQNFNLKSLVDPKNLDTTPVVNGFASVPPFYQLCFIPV

As to `O=C([C@@H](c1ccc(Cl)cc1)c1cccnc1)N1CCN(c2ccc(C(F)(F)F)cc2)CC1` [EPL-BS1246 (UDO)], the 50% inhibitory concentration (IC50) (as a rule, the concentration needed to halve the response being measured) in test [1] is greater than 20 µM; in test [2], 12 µM; in test [3] it was 9 µM; in test [4], 4 µM; in test [5], 20 µM. Moreover, the figures for the dissociation constant Kd in test [6], in test [7] and in test [8] were 69 nM, 156 nM and 19 nM, respectively.

As to `O=C(N[C@@H](Cn1ccnc1)c1ccc(Cl)cc1Cl)c1ccc(-c2nnc(-c3ccccc3)o2)cc1` [VNI], in test [8], binding was put at a Kd of 15 nM.

As to `FC(F)(F)c1ccc(N(c2cccnc2)C2CCN(c3ccc(C(F)(F)F)cn3)CC2)cc1` [EPL-BS0967 (UDD)], the IC50 in test [1] was greater than 20 µM; in test [2], 9.8 µM; in test [3] it was 8.1 µM; in test [4], 20 µM. For the same molecule, the dissociation constant Kd (usually the free concentration of one partner at which half of the binding sites on the other are occupied at equilibrium, for simple one-to-one binding) in test [6] amounted to 26 nM; in test [7], 419 nM; in test [8], 32 nM.

In test [7], `CC[C@@H]([C@H](C)O)n1ncn(-c2ccc(N3CCN(c4ccc(OCC5CO[C@@](Cn6cncn6)(c6ccc(F)cc6F)C5)cc4)CC3)cc2)c1=O` (some centres not stated) [Posaconazole] yielded a Kd of 18 nM. That is a double-digit nanomolar value.

(Values after BindingDB's records for doi:10.1074/jbc.M113.497990 (Vanderbilt University, 2013).)
